Experimental findings from PubChem BioAssay (NCI) are described below.

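96-well plates; 48 h exposure; 5 concentrations. Endpoints by linear interpolation between flanking doses. Not reached: highest tested concentration assigned. The concentration for 50% growth inhibition is given as GI50. At the TGI there is no net growth.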 A value given as a limit tells only on which side of the number the result lay.

Test in all cases: NCI tumour cell line growth inhibition, 48 h
Assay [1] relates to MDA-MB-231 breast.
For assay [2], the system named is UO-31 renal.
Assay [3] deals with HOP-92 NSCLC.
For assay [4], the system named is SN12C renal.
The subject of assay [5] is A549 NSCLC.
Assay [6] has as its system SNB-75 CNS.
In assay [7] the test system is DU-145 prostate.
Assay [8] relates to OVCAR-3 ovarian.
Assay [9] concerns EKVX NSCLC.
Assay [10] relates to T-47D breast.

In the case of `COc1cc(C2C(C#N)=C(N)Oc3cc(O)ccc32)cc(OC)c1OC` (stereo not drawn), the GI50 is 1.85 µM in [1]; 3.84 µM in assay [2]; 0.301 µM in assay [3]; 0.827 µM in assay [4]; 0.625 µM in [5]; 0.271 µM in assay [6]. For the same compound, the GI50 in assay [7] is 0.659 µM; in assay [8], 0.317 µM; in assay [9], 6.49 µM. The TGI is more than 100 µM in assay [1]; more than 100 µM in [2]; 97.5 µM in assay [3]; more than 100 µM in [4]; more than 100 µM in assay [5]; more than 100 µM in assay [6]. Besides, the TGI in assay [7] was more than 100 µM; in assay [8] it was 0.851 µM; in assay [9] it was more than 100 µM.
In the case of `C=C1C(=O)OC2/C=C(\C)C3OC3/C=C(/C(=O)OC)C(OC(C)=O)C(OC(=O)C(C)(O)C(C)OC(C)=O)C12` (stereo not drawn), the TGI in assay [1] was found to be 22.6 µM; in [2] it was 15 µM; in assay [3], 4.1 µM; in [4] it was 7.02 µM; in assay [5], 35.5 µM; in assay [6] it was 10.6 µM. The TGI in assay [8] stood at 13.9 µM; in assay [9] it was 42.9 µM; in [10], 36.8 µM.
Consider `COc1ccc(/C(C)=N/NC(N)=S)c(OC)c1`, for which the TGI in assay [2], in assay [3], in assay [4], in [5], in assay [6] and in assay [8] was more than 100 µM each time. Further, the TGI in assay [9] was more than 100 µM.
With `Cc1nn(-c2ccc(Br)cc2)c(C)c1CC(=O)c1cc(O)ccc1O`, the GI50 in [1] was 5.35 µM; in assay [2] it was 15.9 µM; in assay [4], 6.79 µM; in assay [5], 10.5 µM; in assay [6], 10.8 µM; in [7] it was 14.8 µM. Also, the GI50 in assay [8] was 12.9 µM; in assay [9], 21.3 µM. Further, the TGI in assay [1] was 15 µM; in assay [2], more than 50 µM; in assay [4] it was 16.6 µM; in assay [5], 20.7 µM; in assay [6], 31.1 µM; in [7] it was 44.6 µM. Further, the TGI in [8] was 38.8 µM; in assay [9], more than 50 µM.
Consider `O=C1C(N2C(=O)c3ccccc3C2=O)CN1C(COCc1ccccc1)c1ccc(OCc2ccccc2)cc1` (stereo not drawn), for which the TGI in assay [2], in assay [3], in assay [4], in assay [5], in assay [6] and in assay [8] was more than 100 µM in each case. The TGI in [9] is more than 100 µM.
In the case of `C[C@]12CC[C@H]3[C@@H](C[C@@H]4N=C(c5ccc(O)cc5)S[C@@]45C[C@H](O)CC[C@]35C)[C@@H]1CC[C@@H]2O`, the GI50 is 6.98 µM in assay [1]; 2.48 µM in [2]; 5.95 µM in [5]; 1.84 µM in [6]; 9.54 µM in assay [7]; 8.67 µM in assay [8]. Also, the GI50 in [9] was 7.29 µM; in assay [10] it was 10.3 µM. Besides, the TGI in assay [1] was 32.8 µM; in assay [2], 20.4 µM; in [5], more than 100 µM; in assay [6], 25.7 µM; in assay [7] it was more than 100 µM; in [8] it was 83.7 µM. The TGI in assay [9] and in assay [10] was more than 100 µM in each case.
Regarding `CN(C)/C(N)=N/C(N)=S`, the TGI in [2], in [3], in assay [4], in assay [5], in assay [6] and in assay [8] was more than 100 µM in each case. This compound also had a TGI in [9] of more than 100 µM.
As to `CCC(/C(=N\Nc1c(Cl)cc(Cl)cc1Cl)c1ccccc1)n1ccnc1C` (stereo not drawn), the TGI in [2] was found to be 20.1 µM; in assay [3], 19.7 µM; in [4], 26.4 µM; in assay [5] it was 38.1 µM; in [6], 29.5 µM; in assay [8], 18.8 µM. The TGI in assay [9] was found to be 35.9 µM.
In the case of `CC1=C(c2cc(C(=O)Nc3nccs3)nc(NC#N)n2)Sc2ccccc2N1`, the TGI in assay [2], in assay [3], in [4], in assay [5], in assay [6] and in assay [8] was more than 100 µM in each case. Moreover, the TGI in assay [9] is more than 100 µM.
Take `COc1ccc(-c2nocc2-c2cc(OC)c(OC)c(OC)c2)cc1`: the GI50 in assay [1] was 0.35 µM; in assay [2], 0.54 µM; in [3], 2.02 µM; in [4], 0.942 µM; in [5], 0.0907 µM; in [6] it was 0.0751 µM. For the same compound, the results for the GI50 in [7], in assay [8] and in assay [9] were 0.286 µM, 0.0364 µM and 0.121 µM, respectively. In addition, the TGI in assay [1] was more than 58.4 µM; in assay [2], 29 µM; in assay [3], 59 µM; in assay [4] it was more than 96.2 µM; in assay [5], more than 100 µM; in assay [6] it was more than 100 µM. In addition, the results for the TGI in assay [7], in assay [8] and in [9] were more than 100 µM, 0.474 µM and more than 100 µM, respectively.
Turning to `COc1ccc(C(=O)O)c(Cc2ccc3ccccc3c2)c1`, the TGI in assay [2], in assay [3], in [4], in assay [5], in assay [6] and in assay [8] was more than 100 µM each time. The same compound showed a TGI in assay [9] of more than 100 µM.
For `CCN(CC(COc1ccc2c(c1)[n+]([O-])nc(N)[n+]2[O-])OC(C)=O)C(C)=O` (stereo not drawn), the TGI in assay [1], in assay [2], in assay [4], in assay [5], in assay [6] and in assay [8] was more than 100 µM each time. Besides, the TGI in assay [9] and in assay [10] was more than 100 µM in each case.
`CC(=O)OCC1OC(Sc2ccccn2)C=CC1OC(C)=O` (stereo not drawn): the TGI in assay [2], in assay [3], in assay [4], in assay [5], in assay [6] and in assay [8] was more than 100 µM each time. Also, in assay [9], the TGI was more than 100 µM.
With `CC(O[Si](C)(C)C)C1C=CC(C)n2c(=O)n(-c3ccccc3)c(=O)n21` (stereo not drawn), the TGI in [2], in assay [5], in [8] and in assay [9] was more than 100 µM each time.
